# Assay results as given in patent US20170121344A1 (Siga Technologies, Inc., priority 2009, published 2017).
# Counter-ions that a name gives are not always drawn.
# Tested on: Dengue-2 (Strain New Guinea C)
# Assay: Viral yield assay against Dengue-2 in Vero cells
# Type: cell-based, Dengue virus
# Details: Dengue virus, DENV2, Vero, 48 h, read-out: Activity (EC50 in μM) DENV-2
# Outline: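 Yield reduction, Vero; MOI 0.1; compound vs DMSO; 37° C; harvest 48 h p.i.; titer on Vero; EC50 fitted. Other serotypes run the same way.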
row,Structure (SMILES),EC50 [µM]
1,"Cc1c(C(=O)Nc2nccs2)sc2nc(-c3cccs3)cc(C(F)(F)F)c12 [Compound 386, 3-methyl-N-thiazol-2-yl-6-(2-thienyl)-4-(trifluoromethyl)thieno[2,3-b]pyridine-2-carboxamide]",< 5
2,"CCOc1cccc(NC(=O)c2sc3nc(-c4ccc(OC)c(OC)c4)ccc3c2N)c1 [Compound 582, 3-amino-6-(3,4-dimethoxyphenyl)-N-(3-ethoxyphenyl)thieno[2,3-b]pyridine-2-carboxamide]",< 5

# Same assay, conditions: Dengue virus, DENV2; Vero cells; read-out: Activity (EC50 in μM) DENV-2
row,Structure (SMILES),EC50 [µM]
1,"CN(C)CC(=O)Nc1c(C(=O)Nc2cccc(C(F)(F)F)c2)sc2nc(-c3cccs3)ccc12 [Compound 308, 3-[[2-(dimethylamino)acetyl]amino]-6-(2-thienyl)-N-[3-(trifluoromethyl)phenyl]thieno[2,3-b]pyridine-2-carboxamide]",< 5

# Same assay, conditions: Dengue virus, DENV2; viral yield assay, Vero cells, MOI 0.1, 48 hours post infection; read-out: Activity (EC50 in μM) DENV-2
row,Structure (SMILES),EC50 [µM]
1,"CN(C)CCN(C(=O)c1sc2nc(-c3cccs3)ccc2c1N)c1cccc(C(F)(F)F)c1 [Compound 323, 3-amino-N-(2-dimethylaminoethyl)-6-(2-thienyl)-N-[3-(trifluoromethyl)phenyl]thieno[2,3-b]pyridine-2-carboxamide]",< 5
2,"COc1cccc(-c2ccc3c(N)c(C(=O)Nc4ccc(C)cc4Br)sc3n2)c1 [Compound 627, 3-amino-N-(2-bromo-4-methyl-phenyl)-6-(3-methoxyphenyl)thieno[2,3-b] pyridine-2-carboxamide]",< 5
3,"Nc1c(C(=O)Nc2cccc(Br)c2)sc2ncccc12 [Compound 421, 3-amino-N-(3-bromophenyl)thieno[2,3-b] pyridine-2-carboxamide]",5 to 25
4,"COc1cccc(NC(=O)c2sc3nc(-c4cccc(OC)c4)ccc3c2N)c1 [Compound 503, 3-amino-N,6-bis(3-methoxyphenyl) thieno[2,3-b]pyridine-2-carboxamide]",< 5
5,"Cc1cnc2sc(C(=O)Nc3nnc(-c4ccccc4)s3)c(N)c2c1 [Compound 286, 3-amino-5-methyl-N-(5-phenyl-1,3,4-thiadiazol-2-yl)thieno[2,3-b]pyridine-2-carboxamide]",< 5
6,"Nc1c(C(=O)Nc2cccc(Br)c2)sc2nc(-c3ccncc3)ccc12 [Compound 481, 3-amino-N-(3-bromophenyl)-6-(4-pyridyl)thieno[2,3-b]pyridine-2-carboxamide]",5 to 25
7,"Cc1cc(C)c2c(C)c(C(=O)Nc3ccccc3O)sc2n1 [Compound 403, N-(2-hydroxyphenyl)-3,4,6-trimethyl-thieno[2,3-b]pyridine-2-carboxamide]",< 5
8,"O=C(Nc1nccs1)c1sc2nc(N3CCOCC3)cc(-c3ccccc3)c2c1O [Compound 384, 3-hydroxy-6-morpholino-4-phenyl-N-thiazol-2-yl-thieno[2,3-b]pyridine-2-carboxamide]",5 to 25
9,"COc1ccc(-c2ccc3c(N)c(C(=O)Nc4ccccc4)sc3n2)cc1OC [Compound 634, 3-amino-6-(3,4-dimethoxyphenyl)-N-phenyl-thieno[2,3-b]pyridine-2-carboxamide]",< 5
10,"O=c1[nH]c2c(sc3nc(-c4cccs4)ccc32)c(=O)n1-c1cccc(C(F)(F)F)c1 [Compound 316, 7-(thiophen-2-yl)-3-(3-(trifluoromethyl)phenyl)pyrido[3′,2′:4,5]thieno[3,2-d]pyrimidine-2,4(1H,3H)-dione]",< 5

# Same assay, conditions: Dengue virus, Vero, 48 h, read-out: Activity (EC50 class) against Dengue-2 Virus in Vero cells
row,Structure (SMILES),EC50 [µM]
1,"COc1ccc(NC(=O)c2sc3nc4c(cc3c2N)CCC4)cc1 [Compound 184, 3-Amino-6,7-dihydro-5H-cyclopenta[b]thieno[3,2-e]pyridine-2-carboxylic acid (4-methoxy-phenyl)-amide]",> 25
2,"O=c1[nH]cnc2c1sc1nc(N3CCOCC3)c3c(c12)CCCC3 [Compound 182, 5-Morpholin-4-yl-1,2,3,4-tetrahydro-9H-7-thia-6,9,11-triaza-benzo[c]fluoren-8-one]",> 25
3,"Cc1cc(C)c2c(N)c(C(=O)Nc3ccc(Br)cc3)sc2n1 [Compound 172, 3-Amino-4,6-dimethyl-thieno[2,3-b]pyridine-2-carboxylic acid (4-bromo-phenyl)-amide]",> 25
4,"Nc1c(C(=O)Nc2ccccc2F)sc2nc3c(cc12)CCCCC3 [Compound 79, 3-Amino-6,7,8,9-tetrahydro-5H-1-thia-10-aza-cyclohepta[f]indene-2-carboxylic acid (2-fluoro-phenyl)-amide]",5 to 25
5,"NC(=O)c1sc2nc(N3CCOCC3)c3c(c2c1N)CCCC3 [Compound 171, 1-Amino-5-morpholin-4-yl-6,7,8,9-tetrahydro-thieno[2,3-c]isoquinoline-2-carboxylic acid amide]",> 25
6,"COCc1cc(C)nc2sc(C(=O)Nc3cc(Br)cc4cccnc34)c(N)c12 [Compound 146, 3-Amino-4-methoxymethyl-6-methyl-thieno[2,3-b]pyridine-2-carboxylic acid (6-bromo-quinolin-8-yl)-amide]",> 25

# Same assay, conditions: Dengue virus; Vero cells, MOI 0.1, harvested 48 hours post infection; read-out: Activity (EC50 class) against Dengue-2 Virus in Vero cells
row,Structure (SMILES),EC50 [µM]
1,"CCN(CC)C(=O)c1sc2nc(-c3ccccc3)cc(C(F)(F)F)c2c1N [Compound 196, 3-Amino-6-phenyl-4-trifluoromethyl-thieno[2,3-b]pyridine-2-carboxylic acid diethylamide]",> 25
2,"COc1ccc(-c2c(C#N)c(N)nc3sc(C(=O)Nc4ccc(F)cc4)c(N)c23)cc1OC [Compound 84, 3,6-Diamino-5-cyano-4-(3,4-dimethoxy-phenyl)-thieno[2,3-b]pyridine-2-carboxylic acid (4-fluoro-phenyl)-amide]",5 to 25
3,"CN1CCc2nc3sc(C(=O)NCc4ccc5c(c4)OCO5)c(N)c3cc2C1 [Compound 269, 3-Amino-6-methyl-5,6,7,8-tetrahydro-thieno[2,3-b][1,6]naphthyridine-2-carboxylic acid (benzo[1,3]dioxol-5-ylmethyl)-amide]",> 25
4,"Cc1cc(C)c2c(N)c(C(=O)NCC(=O)O)sc2n1 [Compound 199, [(3-Amino-4,6-dimethyl-thieno[2,3-b]pyridine-2-carbonyl)-amino]-acetic acid]",> 25
5,"Nc1c(C(=O)Nc2nnc(-c3ccccc3)s2)sc2nc3c(cc12)CCNCC3 [Compound 115, 3-Amino-6,7,8,9-tetrahydro-5H-1-thia-7,10-diaza-cyclohepta[f]indene-2-carboxylic acid (5-phenyl-[1,3,4]thiadiazol-2-yl)-amide hydrochloride]",5 to 25
6,"Nc1c(C(=O)Nc2nccs2)sc2nc(-c3ccccc3)cc(C(F)(F)F)c12 [Compound 192, 3-Amino-6-phenyl-4-trifluoromethyl-thieno[2,3-b]pyridine-2-carboxylic acid thiazol-2-ylamide]",> 25
7,"COc1ccc(NC(=O)c2sc3nc4c(c(-c5ccccc5)c3c2N)CN(C)CC4)cc1 [Compound 50, 3-Amino-6-methyl-4-phenyl-5,6,7,8-tetrahydro-thieno[2,3-b][1,6]naphthyridine-2-carboxylic acid (4-methoxy-phenyl)-amide]",< 5
8,"COCc1cc(C)nc2sc3c(=O)n(-c4ccc(C(C)=O)cc4)nnc3c12 [Compound 156, 3-(4-Acetyl-phenyl)-9-methoxymethyl-7-methyl-3H-pyrido[3′,2′:4,5]thieno[3,2-d][1,2,3]triazin-4-one]",> 25
9,"COc1ccc(-c2cc(-c3ccccc3)nc3sc(C(N)=O)c(N)c23)cc1 [Compound 125, 3-Amino-4-(4-methoxy-phenyl)-6-phenyl-thieno[2,3-b]pyridine-2-carboxylic acid amide]",> 25
10,"NC(=O)c1sc2nccc(Nc3ccccc3)c2c1N [Compound 158, 3-Amino-4-phenylamino-thieno[2,3-b]pyridine-2-carboxylic acid amide]",> 25
11,"Nc1c(C(=O)Nc2ccccc2)sc2nc3c(cc12)CCC3 [Compound 173, 3-Amino-6,7-dihydro-5H-cyclopenta[b]thieno[3,2-e]pyridine-2-carboxylic acid phenylamide]",> 25
12,"CCc1nnc(NC(=O)c2sc3nc(-c4ccccc4)cc(C(F)(F)F)c3c2N)s1 [Compound 194, 3-Amino-6-phenyl-4-trifluoromethyl-thieno[2,3-b]pyridine-2-carboxylic acid (5-ethyl-[1,3,4]thiadiazol-2-yl)-amide]",> 25
13,"CCc1nnc(NC(=O)c2sc3nc4c(cc3c2N)CN(C(C)C)CC4)s1 [Compound 272, 3-Amino-6-isopropyl-5,6,7,8-tetrahydro-thieno[2,3-b][1,6]naphthyridine-2-carboxylic acid (5-ethyl-[1,3,4]thiadiazol-2-yl)-amide]",> 25
14,"COCc1cc(C)nc2sc(C(=O)Nc3cc(C)ccc3F)c(N)c12 [Compound 242, 3-Amino-4-methoxymethyl-6-methyl-thieno[2,3-b]pyridine-2-carboxylic acid (2-fluoro-5-methyl-phenyl)-amide]",> 25
15,"COCc1cc(C)nc2sc(C(=O)Nc3cccc(Cl)c3)c(N)c12 [Compound 97, 3-Amino-4-methoxymethyl-6-methyl-thieno[2,3-b]pyridine-2-carboxylic acid (3-chloro-phenyl)-amide]",5 to 25
16,"Nc1c(C(=O)N2CCCCC2)sc2nc3c(cc12)CCCCC3 [Compound 191, (3-Amino-6,7,8,9-tetrahydro-5H-1-thia-10-aza-cyclohepta[f]inden-2-yl)-piperidin-1-yl-methanone]",> 25
17,"Cc1cc(C)c(NC(=O)c2sc3nc4c(cc3c2N)C(=O)CCC4)c(C)c1 [Compound 94, 3-Amino-5-oxo-5,6,7,8-tetrahydro-thieno[2,3-b]quinoline-2-carboxylic acid (2,4,6-trimethyl-phenyl)-amide]",5 to 25
18,"COc1ccccc1NC(=O)c1sc2nc3c(cc2c1N)CN(C)CC3 [Compound 58, 3-Amino-6-methyl-5,6,7,8-tetrahydro-thieno[2,3-b][1,6]naphthyridine-2-carboxylic acid (2-methoxy-phenyl)-amide]",< 5
